The values below come from patent US8563712B2, “Hydroxy-substituted gold(III) porphyrin complexes as histone deacetylase inhibitors” (The University of Hong Kong, priority 2009, dated 2013).

In data set [1] the test system is acetylated histone H4. As to the kind of experiment: ChIP-PCR of acetylated histone H4 at promoter regions. Type of data set: cell-based, human. Particulars: MDA-MB-231, 24 hours. As to the method:
To further confirm these unexpected observations, ChIP-PCR was performed to quantify the acetylated histone H4 levels at the promoter regions of the above genes. […] Similar levels of acetylated histone H4 were only observed at 24 hours after treatment.
MDA-MB-231 cells were treated with different drugs for 24 hours. ChiP-PCR was performed for analyzing the levels of acetylated histone H4 at the promoter regions of CTNNB1, WIF1, WNT5B, WNT1, WISP1 and ESR1, using antibody recognizing histone H4 acetylated at lysines 5, 8, 12, and 16. Bar charts represented the quantitative results by real time PCR analysis after normalization against the input DNA. Representative agarose gel images were shown at the bottom. […] Equal protein loading was confirmed by Amido black staining. *, P<0.01 versus vehicle control, n=3.

Data set [2] deals with histone H4 acetylation. As to the kind of experiment: Western blotting of global acetylated histone H4. The format is cell-based, human. Particulars: MDA-MB-231, six and 24 hours. (In general: A western blot detects proteins with antibodies after separation by electrophoresis.)
Data set [3] concerns MDA-MB-231 tumor xenograft. As to the kind of experiment: Mammary MDA-MB-231 tumor growth in nude mice. Type of data set: in vivo. As to the method:
Most of the animals remained in a tumor-free status until day 25, at which recurrence of a tumor was observed.
MDA-MB-231 cells were inoculated into the mammary fat pad of nude mice as described in Methods. […] Tumor growth (A) and body weight (B) were monitored bi-weekly. C, Kaplan-Meier estimates of the survival curves were calculated and plotted. D, At the end of experiment, tumors were collected and weighed. # and *, P<0.05 versus PET control, n=4-6.

The subject of data set [4] is MDA-MB-231. As to the kind of experiment: Crystal violet anti-proliferative assay. Type of data set: cell-based, human. As to the method: (§1) Table 1). The presence of high concentrations of serum had no effects on the potencies of the drug. […] Similar results were observed when the drug exposure time was extended to 48 h. […] The antiproliferative activity of another gold(III) porphyrin complex ([Au^III(TPP)]Cl, gold-1a) in MDA-MB-231 cells was also tested. […] Apoptosis of MDA-MB-231 cells were evaluated by measuring DNA fragmentation.

Data set [5] has as its system human breast carcinoma cells (BT474, MCF-7, T47D, MDA-MB-231, SKBR3). As to the kind of experiment: Crystal violet assay, statements on the whole panel. Type of data set: cell-based. As to conditions: five breast carcinoma cell lines. As for the experimental part: as §1
Data set [6] has as its system β-catenin. As to the kind of experiment: β-catenin protein level, nuclear activity, phosphorylation and ubiquitination. Type of data set: cell-based, human. As to conditions: MDA-MB-231 cells. An excerpt:
Aberrant activation of the Wnt/β-catenin signalling plays a key role in the development of many human cancer diseases. Intracellular accumulation of β-catenin protein has been observed in a large portion of human breast tumors. […] On the contrary, cisplatin had no influence on both the protein levels and nuclear activities of β-catenin. In the absence of a Wnt signal, β-catenin is phosphorylated by glycogen synthase kinase-3beta, which facilitates the subsequent ubiquitination and proteasome degradation.

For data set [7], the system named is BT474. As to the kind of experiment: Crystal violet anti-proliferative assay. The format is cell-based, human. As for the experimental part:
as §1

Data set [8] deals with SKBR3. As to the kind of experiment: Crystal violet anti-proliferative assay. The format is cell-based, human. As to the method: as §1
The subject of data set [9] is MCF7. As to the kind of experiment: Crystal violet anti-proliferative assay. Type of data set: cell-based, human. As to the method: as §1
For data set [10], the system named is T47D. As to the kind of experiment: Crystal violet anti-proliferative assay. The format is cell-based, human. As to the method:
as §1

[11] abbreviates: intraductal 15 mg/kg, end of experiment.

Turning to `CC(/C=C/C(=O)NO)=C\[C@@H](C)C(=O)c1ccc(N(C)C)cc1` [TSA, trichostatin A], in data set [1], the “acetylated histone H4 at CTNNB1 promoter” value is listed as “not significantly altered”, the “acetylated histone H4 at ESR1 promoter” value is listed as “increased”, the “acetylated histone H4 at WIF1 promoter” value was “no significant effects” and the “acetylated histone H4 at WISP1 promoter” value is listed as “not significantly altered”. For the same compound, in [1], the “acetylated histone H4 at WNT1 promoter” value is “no significant effects” and the “acetylated histone H4 at WNT5B promoter” value is recorded as “no significant effects”. For the same compound, the “global histone H4 acetylation” value in data set [2] is “significant induction”.
Turning to [Au^III(TPP)]Cl [gold-1a], the “inhibition of breast tumor growth” value in data set [3] (sub-lethal concentrations) is “no inhibition”. In data set [4] (MDA-MB-231 cells, non-linear regression), the “less effective than gold-2a (growth inhibition curves)” value is reported as approximately 1000 fold.
The term IC50 denotes the concentration that inhibits the measured activity by half. Read a high IC50 as weaker potency. Regarding `N.N.[Cl][Pt][Cl]` [cisplatin], the “IC50 values higher when compared to gold-2a” value in [5] is 100-3000 times. Moreover, the “nuclear transcriptional activities of β-catenin” value in [6] is listed as “no influence”. For the same compound, in data set [6] (from four hours, 0.5% and 10% FBS), the “protein levels of β-catenin” value is recorded as “no influence”. The compound further gave an animals died in [3] (after two intraductal injections) of approximately 40%. The average tumor weights in [3] (setting [11]) was determined as 0.42 g. Further, the “tumor weight decreased compared to control group” value in data set [3] (setting [11]) is 34%. The “rates of tumor growth compared to gold-2a” value in data set [3] (intraductal, same dosage (15 mg/kg)) is given as “attenuated the rates of tumor growth to a much lesser degree”. For the same compound, the IC50 worked out at 49 ± 0.5 µM in [7] (24 hours, 0.5% FBS); 45.1 ± 8.2 µM in data set [7] (24 hours, 10% FBS); 1.6 ± 0.53 µM in [7] (48 hours, 0.5% FBS); 2.89 ± 0.9 µM in data set [7] (48 hours, 10% FBS); 65.9 ± 25.5 µM in [8] (24 hours, 0.5% FBS); 76.3 ± 33.8 µM in data set [8] (24 hours, 10% FBS). For the same compound, the IC50 is 33.9 ± 11 µM in data set [8] (48 hours, 0.5% FBS); 41 ± 7.91 µM in data set [8] (48 hours, 10% FBS); 14.3 ± 1.46 µM in data set [9] (24 hours, 0.5% FBS); 20.1 ± 4.92 µM in [9] (24 hours, 10% FBS); 10.1 ± 1.47 µM in [9] (48 hours, 0.5% FBS); 15.9 ± 2.33 µM in [9] (48 hours, 10% FBS). Further, the IC50 is 7.37 ± 1.19 µM in data set [4] (24 hours, 0.5% FBS); 21 ± 11.2 µM in data set [4] (24 hours, 10% FBS); 6.52 ± 0.48 µM in data set [4] (48 hours, 0.5% FBS); 18.4 ± 3.42 µM in data set [4] (48 hours, 10% FBS); 66.5 ± 12.4 µM in [10] (24 hours, 0.5% FBS); 99.4 ± 5.71 µM in data set [10] (24 hours, 10% FBS). Besides, the half-inhibitory concentration (IC50) in [10] (48 hours, 0.5% FBS) was found to be 7.76 ± 5.54 µM; in data set [10] (48 hours, 10% FBS), 6.69 ± 3.14 µM.
